Assay results taken from US20150218173A1, “SUBSTITUTED INDAZOL-PYRROLOPYRIMIDINES USEFUL IN THE TREATMENT OF HYPERFOLIFERATIVE DISORDERS” (BAYER PHARMA AKTIENGESELLSCHAFT, priority 2012, published 2015).

Biological target: T1, human full-length MKNK1 (Homo sapiens, UniProt Q9BUB5, T385D)
T1 construct: GST (N); purchased Carna Biosciences 02-145; host or cells: insect cells (baculovirus expression system)
Assay: MKNK1 kinase high ATP assay (TR-FRET)
Format: biochemical
Settings: high ATP (2 mM final), 15 min preincubation with enzyme
Description: MKNK1-inhibitory activity at high ATP of compounds of the present invention after their preincubation with MKNK1 was quantified employing the TR-FRET-based MKNK1 high ATP assay as described in the following paragraphs.
A recombinant fusion protein of Glutathione-S-Transferase (GST, N-terminally) and human full-length MKNK1 (amino acids 1-424 and T344D of accession number BAA 19885.1), expressed in insect cells using baculovirus expression system and purified via glutathione sepharose affinity chromatography, was purchased from Carna Biosciences (product no 02-145) and used as enzyme. As substrate for the kinase reaction the biotinylated peptide biotin-Ahx-IKKRKLTRRKSLKG (C-terminus in amide form) was used, which can be purchased e.g. from the company Biosyntan (Berlin-Buch, Germany).
For the assay 50 nL of a 100 fold concentrated solution of the test compound in DMSO was pipetted into a black low volume 384 well microtiter plate (Greiner Bio-One, Frickenhausen, Germany), 2 μL of a solution of MKNK1 in aqueous assay buffer [50 mM HEPES pH 7.5, 5 mM MgCl2, 1.0 mM dithiothreitol, 0.005% (v/v) Nonidet-P40 (Sigma)] was added and the mixture was incubated for 15 min at 22° C. to allow pre-binding of the test compounds to the enzyme before the start of the kinase reaction. Then the kinase reaction was started by the addition of 3 μL of a solution of adenosine-tri-phosphate (ATP, 3.3 mM=>final conc. in the 5 μL assay volume is 2 mM) and substrate (0.1 μM=>final conc. in the 5 μL assay volume is 0.06 μM) in assay buffer and the resulting mixture was incubated for a reaction time of 30 min at 22° C. The concentration of MKNK1 was adjusted depending of the activity of the enzyme lot and was chosen appropriate to have the assay in the linear range, typical concentrations were in the range of 0.003 μg/mL. The reaction was stopped by the addition of 5 μL of a solution of TR-FRET detection reagents (5 nM streptavidine-XL665 [Cisbio Bioassays, Codolet, France] and 1 nM anti-ribosomal protein S6 (pSer236)-antibody from Invitrogen [#44921G] and 1 nM LANCE EU-W1024 labeled ProteinG [Perkin-Elmer, product no. AD0071]) in an aqueous EDTA-solution (100 mM EDTA, 0.1% (w/v) bovine serum albumin in 50 mM HEPES pH 7.5).
The resulting mixture was incubated for 1 h at 22° C. to allow the formation of complex between the phosphorylated biotinylated peptide and the detection reagents. Subsequently the amount of phosphorylated substrate was evaluated by measurement of the resonance energy transfer from the Eu-chelate to the streptavidine-XL. Therefore, the fluorescence emissions at 620 nm and 665 nm after excitation at 350 nm were measured in a TR-FRET reader, e.g. a Rubystar (BMG Labtechnologies, Offenburg, Germany) or a Viewlux (Perkin-Elmer). The ratio of the emissions at 665 nm and at […] was taken as the measure for the amount of phosphorylated substrate. The data were normalised (enzyme reaction without inhibitor=0% inhibition, all other assay components but no enzyme=100% inhibition).

T1 sequence (Q9BUB5 1-424 isoform Q9BUB5-2 T344D): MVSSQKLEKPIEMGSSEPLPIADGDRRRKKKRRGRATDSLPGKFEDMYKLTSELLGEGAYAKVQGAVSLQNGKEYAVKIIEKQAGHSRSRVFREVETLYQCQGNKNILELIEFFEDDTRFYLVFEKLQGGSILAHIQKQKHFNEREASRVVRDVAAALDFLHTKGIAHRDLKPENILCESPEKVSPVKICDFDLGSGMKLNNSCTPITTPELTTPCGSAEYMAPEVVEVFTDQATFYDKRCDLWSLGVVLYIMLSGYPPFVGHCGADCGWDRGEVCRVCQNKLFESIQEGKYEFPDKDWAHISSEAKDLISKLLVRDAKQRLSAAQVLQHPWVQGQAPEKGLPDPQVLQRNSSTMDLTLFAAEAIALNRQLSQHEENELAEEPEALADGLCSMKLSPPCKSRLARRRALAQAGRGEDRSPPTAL

FC(F)(F)c1c[nH]c2ncnc(Nc3ccc4[nH]ncc4c3)c12 [Example 35, N-(1H-Indazol-5-yl)-5-(trifluoromethyl)-7H-pyrrolo[2,3-d]pyrimidin-4-amine] showed an IC50 of 37 nM.
Work on OCc1c[nH]c2ncnc(Nc3ccc4[nH]ncc4c3)c12 [Example 41, [4-(1H-indazol-5-ylamino)-7H-pyrrolo[2,3-d]pyrimidin-5-yl]methanol] yielded an IC50 of 37 nM.
For CCOC(=O)c1[nH]c2ncnc(Nc3ccc4[nH]ncc4c3)c2c1C [Example 29, Ethyl 4-(1H-indazol-5-ylamino)-5-methyl-7H-pyrrolo[2,3-d]pyrimidine-6-carboxylate], the IC50 was 13 nM.
C1=C(c2c[nH]c3ncnc(Nc4ccc5[nH]ncc5c4)c23)CCOC1 [Example 17, 5-(3,6-Dihydro-2H-pyran-4-yl)-N-(1H-indazol-5-yl)-7H-pyrrolo[2,3-d]pyrimidin-4-amine] gave an IC50 of 12 nM.
For C[C@@H]1COCCN1C(=O)c1[nH]c2ncnc(Nc3ccc4[nH]ncc4c3)c2c1Br [Example 42, [5-Bromo-4-(1H-indazol-5-ylamino)-7H-pyrrolo[2,3-d]pyrimidin-6-yl][(3R)-3-methylmorpholin-4-yl]methanone], the IC50 was 58 nM.
C=Cc1cc2c(Nc3ccc4[nH]ncc4c3)ncnc2[nH]1 [Example 9, 6-Ethenyl-N-(1H-indazol-5-yl)-7H-pyrrolo[2,3-d]pyrimidin-4-amine] was tested, and the IC50 was 7 nM.
